Where two headings read alike, the source gives them in different places.
Legend:
[1] = system: Ba/F3 cells containing Ros1 wild-type protein + IL-3; assay: Ba/F3-Ros1 cell proliferation counter-screen, wild-type protein in the presence of 10 ng/ml murine IL-3; type: cell-based; conditions: Mus musculus, BaF3, 24 h, read-out: BaF3-ROS1 + IL3 pIC50 (converted)
Protocol: (§1) This assay was carried out with Ba/F3 cells containing three different versions of Ros1: the wild-type protein, protein with a mutation at the gatekeeper residue (L2026M), and protein with a mutation identified in a tumor from a patient that became resistant to crizotinib (Xalkori®) treatment (G2032R). Compounds were solubilized in 100% DMSO (dimethyl sulfoxide) and sprayed into polystyrene, tissue culture treated 384-well plates. A 50 μl volume of cell culture medium (phenol red free RPMI-1640, 10% FBS (fetal bovine serum), 2 mM L-Glutamine) containing 20000 Ba/F3-Ros1 cells was added to each well and the plates were placed in an incubator at 37° C. and 5% CO2. After 24 hours, 10 μl of Alamar Blue solution (0.5 mM K3Fe(CN)6, 0.5 mM K4Fe(CN)6, 0.15 mM Resazurin and 100 mM Phosphate Buffer) was added to the wells, incubated for 4 hours at 37° C. and 5% CO2 before RFU's (Relative Fluorescence Units) (ex. 540 nm., em. 590 nm.) were measured in a fluorescence plate reader.
As a counter-screen the same experiment was performed for the wild-type protein in the presence of 10 ng/ml murine IL-3.

[2] = target: T1, Ba/F3 cells containing Ros1 wild-type protein (Homo sapiens, UniProt P08922, cells depend on it, form not given); assay: Ba/F3-Ros1 cell proliferation assay, wild-type Ros1; type: cell-based, murine; conditions: without IL-3
T1 construct: The background only speaks of 'a number of different unrelated proteins' and names SLC34A2-ROS1 for HCC78 cells
T1 sequence (P08922 whole entry, stated change not applied): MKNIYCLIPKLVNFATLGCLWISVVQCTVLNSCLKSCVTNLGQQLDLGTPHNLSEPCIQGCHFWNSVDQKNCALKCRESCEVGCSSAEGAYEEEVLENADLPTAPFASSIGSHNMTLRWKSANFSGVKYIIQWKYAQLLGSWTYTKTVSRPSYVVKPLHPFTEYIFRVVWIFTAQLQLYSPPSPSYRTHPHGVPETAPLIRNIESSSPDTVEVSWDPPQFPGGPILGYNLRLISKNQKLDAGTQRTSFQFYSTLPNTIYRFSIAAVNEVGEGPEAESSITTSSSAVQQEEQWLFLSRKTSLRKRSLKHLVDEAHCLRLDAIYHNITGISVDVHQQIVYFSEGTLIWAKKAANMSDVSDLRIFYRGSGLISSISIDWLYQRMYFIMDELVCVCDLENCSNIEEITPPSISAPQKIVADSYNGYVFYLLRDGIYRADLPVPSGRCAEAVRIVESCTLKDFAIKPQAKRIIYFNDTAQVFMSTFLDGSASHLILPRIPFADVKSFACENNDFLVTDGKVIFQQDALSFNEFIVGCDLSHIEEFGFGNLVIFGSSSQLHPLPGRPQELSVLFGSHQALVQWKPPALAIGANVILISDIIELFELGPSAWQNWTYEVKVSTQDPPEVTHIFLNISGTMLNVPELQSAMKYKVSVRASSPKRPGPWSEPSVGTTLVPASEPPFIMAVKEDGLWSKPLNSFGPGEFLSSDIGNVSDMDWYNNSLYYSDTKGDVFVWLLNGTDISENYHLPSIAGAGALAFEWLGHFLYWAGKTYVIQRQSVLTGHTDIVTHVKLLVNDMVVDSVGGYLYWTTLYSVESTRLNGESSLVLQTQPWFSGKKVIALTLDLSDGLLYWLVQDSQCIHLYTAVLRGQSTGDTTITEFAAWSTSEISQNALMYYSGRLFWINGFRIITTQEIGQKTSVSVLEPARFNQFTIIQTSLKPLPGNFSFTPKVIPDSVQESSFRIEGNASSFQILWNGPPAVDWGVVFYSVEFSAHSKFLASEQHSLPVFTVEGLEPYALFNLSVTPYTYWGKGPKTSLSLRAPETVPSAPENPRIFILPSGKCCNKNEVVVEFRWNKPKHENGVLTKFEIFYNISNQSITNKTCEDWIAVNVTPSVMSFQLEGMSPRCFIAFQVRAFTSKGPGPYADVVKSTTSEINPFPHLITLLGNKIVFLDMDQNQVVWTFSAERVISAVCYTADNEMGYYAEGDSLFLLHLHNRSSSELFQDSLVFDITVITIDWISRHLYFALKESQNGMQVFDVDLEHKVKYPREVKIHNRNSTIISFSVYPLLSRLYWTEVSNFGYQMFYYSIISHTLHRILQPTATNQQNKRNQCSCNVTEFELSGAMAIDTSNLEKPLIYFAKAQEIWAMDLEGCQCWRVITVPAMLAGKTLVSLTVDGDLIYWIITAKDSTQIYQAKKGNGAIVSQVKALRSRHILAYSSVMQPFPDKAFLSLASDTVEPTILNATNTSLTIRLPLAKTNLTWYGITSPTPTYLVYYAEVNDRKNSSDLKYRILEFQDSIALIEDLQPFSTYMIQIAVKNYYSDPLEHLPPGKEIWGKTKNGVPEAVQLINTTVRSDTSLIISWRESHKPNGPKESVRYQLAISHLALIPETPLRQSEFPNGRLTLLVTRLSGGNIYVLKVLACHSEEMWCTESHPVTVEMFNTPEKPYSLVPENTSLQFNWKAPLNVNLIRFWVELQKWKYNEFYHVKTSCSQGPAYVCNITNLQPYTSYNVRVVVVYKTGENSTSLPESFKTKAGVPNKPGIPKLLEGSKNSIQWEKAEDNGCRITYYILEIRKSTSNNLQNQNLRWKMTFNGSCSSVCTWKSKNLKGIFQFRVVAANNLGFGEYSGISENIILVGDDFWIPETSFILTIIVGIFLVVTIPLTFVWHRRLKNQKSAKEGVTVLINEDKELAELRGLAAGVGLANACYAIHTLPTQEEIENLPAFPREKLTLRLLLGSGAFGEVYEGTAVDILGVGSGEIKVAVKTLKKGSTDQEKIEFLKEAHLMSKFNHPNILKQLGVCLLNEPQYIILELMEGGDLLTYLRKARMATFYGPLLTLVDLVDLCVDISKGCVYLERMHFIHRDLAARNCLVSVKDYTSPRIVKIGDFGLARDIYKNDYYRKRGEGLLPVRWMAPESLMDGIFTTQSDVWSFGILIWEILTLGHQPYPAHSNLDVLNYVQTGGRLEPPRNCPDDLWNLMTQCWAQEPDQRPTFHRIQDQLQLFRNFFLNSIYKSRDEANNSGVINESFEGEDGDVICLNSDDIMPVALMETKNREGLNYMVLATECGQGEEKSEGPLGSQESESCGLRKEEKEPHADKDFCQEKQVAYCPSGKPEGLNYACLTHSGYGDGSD
Protocol: (§2) Ba/F3-Ros1 Cell Proliferation Assay
as §1

Ros1 enzyme = target: T2, Ros1 enzyme (Homo sapiens, UniProt P08922); assay: Ros1 enzymatic assay; type: biochemical; conditions: Ros1 enzymatic assay; for IC50: read-out: ROS1 pIC50 (converted)
T2 construct: 0.5 μg/ml Ros1 enzyme
T2 sequence (P08922 28-2347): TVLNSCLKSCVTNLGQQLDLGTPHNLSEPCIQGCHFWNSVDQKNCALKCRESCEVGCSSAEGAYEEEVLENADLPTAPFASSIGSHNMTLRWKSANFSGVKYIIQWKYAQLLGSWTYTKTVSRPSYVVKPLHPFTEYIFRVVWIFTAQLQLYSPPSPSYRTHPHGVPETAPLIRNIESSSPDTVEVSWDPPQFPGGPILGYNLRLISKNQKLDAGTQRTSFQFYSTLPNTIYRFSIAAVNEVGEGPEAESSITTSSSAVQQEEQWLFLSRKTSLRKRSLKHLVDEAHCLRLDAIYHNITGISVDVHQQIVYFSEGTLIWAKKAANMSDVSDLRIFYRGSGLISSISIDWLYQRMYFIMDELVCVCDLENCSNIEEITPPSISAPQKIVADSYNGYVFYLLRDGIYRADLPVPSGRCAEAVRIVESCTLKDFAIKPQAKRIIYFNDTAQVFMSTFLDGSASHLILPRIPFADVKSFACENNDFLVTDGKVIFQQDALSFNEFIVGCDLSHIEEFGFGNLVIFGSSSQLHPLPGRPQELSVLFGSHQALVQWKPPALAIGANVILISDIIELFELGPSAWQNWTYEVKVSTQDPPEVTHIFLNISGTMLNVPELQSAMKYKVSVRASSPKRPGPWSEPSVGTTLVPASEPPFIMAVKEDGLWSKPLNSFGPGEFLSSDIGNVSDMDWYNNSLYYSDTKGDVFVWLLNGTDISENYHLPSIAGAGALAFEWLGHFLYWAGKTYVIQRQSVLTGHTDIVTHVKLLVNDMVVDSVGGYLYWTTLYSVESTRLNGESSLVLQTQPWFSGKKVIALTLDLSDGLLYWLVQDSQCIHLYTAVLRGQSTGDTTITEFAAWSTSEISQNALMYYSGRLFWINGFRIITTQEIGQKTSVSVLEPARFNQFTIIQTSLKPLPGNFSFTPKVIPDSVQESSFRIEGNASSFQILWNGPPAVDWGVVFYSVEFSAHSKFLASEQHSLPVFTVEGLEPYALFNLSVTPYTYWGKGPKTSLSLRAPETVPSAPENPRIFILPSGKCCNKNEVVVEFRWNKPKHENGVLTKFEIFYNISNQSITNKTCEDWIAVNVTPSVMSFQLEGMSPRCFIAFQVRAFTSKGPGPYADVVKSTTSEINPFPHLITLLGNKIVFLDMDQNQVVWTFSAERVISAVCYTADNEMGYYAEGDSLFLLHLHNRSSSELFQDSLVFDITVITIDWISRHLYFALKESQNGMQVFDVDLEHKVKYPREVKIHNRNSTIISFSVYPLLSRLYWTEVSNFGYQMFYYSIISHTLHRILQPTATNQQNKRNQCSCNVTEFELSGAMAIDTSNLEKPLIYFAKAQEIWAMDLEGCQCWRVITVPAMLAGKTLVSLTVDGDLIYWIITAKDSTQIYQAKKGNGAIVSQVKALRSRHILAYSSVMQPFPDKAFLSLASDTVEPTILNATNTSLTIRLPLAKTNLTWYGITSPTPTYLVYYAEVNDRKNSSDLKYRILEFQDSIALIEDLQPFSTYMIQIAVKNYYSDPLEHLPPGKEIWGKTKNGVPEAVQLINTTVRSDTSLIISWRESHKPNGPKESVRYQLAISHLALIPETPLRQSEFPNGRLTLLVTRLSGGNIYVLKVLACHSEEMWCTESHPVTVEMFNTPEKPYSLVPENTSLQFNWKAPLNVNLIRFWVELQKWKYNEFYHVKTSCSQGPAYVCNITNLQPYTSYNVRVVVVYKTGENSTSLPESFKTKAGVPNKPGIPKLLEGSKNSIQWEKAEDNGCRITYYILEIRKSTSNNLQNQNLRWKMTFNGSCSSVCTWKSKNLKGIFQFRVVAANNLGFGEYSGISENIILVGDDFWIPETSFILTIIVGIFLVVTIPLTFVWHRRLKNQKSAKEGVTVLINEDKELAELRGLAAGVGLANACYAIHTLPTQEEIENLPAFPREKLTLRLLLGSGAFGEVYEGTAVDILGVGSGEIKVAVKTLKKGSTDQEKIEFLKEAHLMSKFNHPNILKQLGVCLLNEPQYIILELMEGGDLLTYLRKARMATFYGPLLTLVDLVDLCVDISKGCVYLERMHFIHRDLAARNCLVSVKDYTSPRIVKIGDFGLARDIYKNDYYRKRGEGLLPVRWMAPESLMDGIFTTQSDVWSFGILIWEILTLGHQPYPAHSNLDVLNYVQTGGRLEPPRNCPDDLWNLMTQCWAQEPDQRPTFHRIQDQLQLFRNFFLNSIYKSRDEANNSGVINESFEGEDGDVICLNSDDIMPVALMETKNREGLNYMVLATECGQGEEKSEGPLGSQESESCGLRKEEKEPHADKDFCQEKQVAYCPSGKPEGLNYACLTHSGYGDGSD
Protocol: Compounds were spotted onto white 384-well Proxiplate plus plates (Perkin Elmer) to which 5 μl of enzyme mix (0.5 μg/ml Ros1 enzyme, 50 mM Tris-HCl pH7.5, 1 mM EGTA, 10 mM MgCl2, 0.01% Tween-20) and 5 μl of substrate mix (6 μg/ml IRS-Tide [American Peptide Company], 20 μM ATP, 13.33 μCi/ml ATP (adenosine 5′-triphosphate) P^33, 50 mM Tris-HCl pH7.5, 1 mM EGTA (ethylene glycol-bis(2-aminoethylether)-N,N,N′,N′-tetraacetic acid), 10 mM MgCl2, 0.01% Tween-20) were added. After incubation for 120 minutes at room temperature, 10 μl of stop reaction buffer (5 mM EDTA, 50 μM ATP, 0.1% BSA (bovine serum albumin), 0.1% Triton X-100, 50 mM Tris-HCl pH7.5, 1 mM EGTA, 10 mM MgCl2, 0.01% Tween-20) containing 2 mg/ml streptavidin coupled polystyrene imaging beads (Amersham Biosciences) was added and incubated for 15 minutes at room temperature. Plates were centrifuged for 3 minutes at 1500 rpm and signals detected in a LEADseeker imaging system (GE).

[3] = target: Ba/F3 cells containing Ros1 with a mutation at the gatekeeper residue (L2026M) (Homo sapiens, UniProt P08922, L2026M, cells depend on it, form not given); assay: Ba/F3-Ros1 cell proliferation assay, L2026M gatekeeper mutant; type: cell-based, murine; conditions: without IL-3
Ba/F3 cells containing Ros1 with a mutation at the gatekeeper residue (L2026M), sequence (P08922 whole entry L2026M, form open): as the sequence (P08922 whole entry, stated change not applied) above, with L2026M counted along it
Protocol: as §2, §1

[4] = counter-screen, wild-type, 10 ng/ml murine IL-3

Row | Compound | melting point | CC50 [1] | BaF3-ROS1-IL3 pIC50 [2] | IC50 (Ros1 enzyme) | CC50 [1, 4] | ROS1 pIC50 (Ros1 enzyme) | Ba/F3 Ros1 L2026M (-IL-3) pIC50 [3]
1 | COc1ccc(COc2ccc(-c3c(-c4ccncn4)nn4c3C(=O)NCC4)cc2)cc1 [Compound 157] | 264 °C | > 10 µM | 6.1 | 1 µM |  |  | 
2 | COC(=O)c1cccc(COc2ccc(-c3c(-c4ccncc4)nn4c3C(=O)NCC4)cc2)c1 [Compound 131] | 222 °C | > 10 µM | 6.2 | 0.631 µM |  |  | 
3 | CC(C)c1ccc(C(Oc2ccc(-c3c(-c4ccncc4)nn4c3C(=O)NCC4)cc2)C(=O)NCCO)cc1 (stereo not shown) [Compound 218] |  | > 10 µM | 6.3 | 0.2 µM |  |  | 
4 | COCCOc1cc(COc2ccc(-c3c(-c4ccncc4)nn4c3C(=O)NCC4)cc2)ccc1C [Compound 104] | 190 °C | > 10 µM | 6.1 | 1.26 µM |  |  | 
5 | CCC(C)c1ccc(COc2ccc(-c3c(-c4ccncc4)nn4c3C(=O)NCC4)cc2)cc1 (stereo not shown) [Compound 106] | 229 °C | > 10 µM | 7.5 | 0.0251 µM |  |  | 
6 | CC(C)c1ccc(COc2ccc(-c3c(-c4ccncc4)nn4c3CN(CCN)CC4)cc2)cc1 [Compound 210] | 197 °C |  | 6.3 | 0.0631 µM | 6.31 µM |  | 
7 | CC(C)Oc1cc(-c2c(-c3ccncc3)nn3c2C(=O)NCC3)ccc1OCc1ccc(C(C)C)cc1 [Compound 37] | 206 °C | > 10 µM | 5.4 | 2.51 µM |  |  | 
8 | COc1ncc(COc2ccc(-c3c(-c4ccncc4)nn4c3C(=O)NCC4)cc2)cn1 [Compound 229] | 248 °C |  | <5 | > 10 µM | > 10 µM |  | 
9 | CC(C)c1ccc(COc2ccc(-c3c(-c4ccncc4)nn4c3C(=O)N(CCN)CC4)cc2)cc1 [Compound 59a] |  |  | 6.6 |  |  | 7.2 | 
10 | CC(C)c1ccc(C2CNc3cc(-c4c(-c5ccncc5)nn5c4C(=O)NCC5)ccc3O2)cc1 (stereo not shown) [Compound 224] |  |  | 6.7 | 0.398 µM | > 10 µM |  | 
11 | CC(C)(CO)c1ccc(COc2ccc(-c3c(-c4ccncc4)nn4c3C(=O)NCC4)cc2)cc1 [Compound 125] | 280 °C | > 10 µM | 6.7 | 0.316 µM |  |  | 
12 | CNCC(=O)N1CCn2nc(-c3ccncc3)c(-c3ccc(OCc4ccc(C(C)C)cc4)cc3)c2C1 [Compound 182] |  |  | 5.7 | 1.26 µM | 5.01 µM |  | 
13 | CC(C)c1ccc(COc2ccc(-c3c(-c4ncnc5[nH]ccc45)nn4c3C(=O)NCC4)cc2)cc1 [Compound 222] | 238 °C | > 10 µM | 7.0 | 0.2 µM |  |  | 
14 | CC(C)c1ccc(COc2ccc(-c3c(-c4cc[n+]([O-])cc4)nn4c3C(=O)NCC4)cc2)cc1 [Compound 170] | 227 °C |  | 5.2 | 6.31 µM | > 10 µM |  | 
15 | O=C1NCCn2nc(-c3ccncc3)c(-c3ccc(OCc4ccc(OC(F)F)cc4)cc3)c21 [Compound 118] | 250 °C | > 10 µM | 7.1 | 0.158 µM |  |  | 
16 | CC(C)c1ccc(C2CNc3cc(-c4c(-c5ccncc5)nn5c4C(=O)NCC5)ccc3O2)cc1 (stereo not shown) [Compound 225] |  |  | 6.7 | 0.316 µM |  |  | 
17 | N#Cc1ccc(COc2ccc(-c3c(-c4ccncc4)nn4c3C(=O)NCC4)cc2)cc1Cl [Compound 141] | 257 °C | > 10 µM | 6.4 | 0.631 µM |  |  | 
18 | CC(C)c1ccc(COc2ccc(-c3c(-c4ccncn4)nn4c3CN(CCO)CC4)cc2)cc1 [Compound 220] |  |  | 6.5 | 0.501 µM | > 10 µM |  | 
19 | CC(C)c1ccc(COc2ccc(-c3c(-c4ccnc(N)n4)nn4c3C(=O)NCC4)cc2)cc1 [Compound 13] |  | > 10 µM | 7.5 | 0.02 µM |  |  | 
20 | CC(C)c1ccc(COc2ccc(-c3c(-c4ccncc4)nn4c3C(=O)N(CCO)CC4)cn2)cc1 [Compound 212] |  | > 10 µM | 7.3 | 0.0398 µM |  |  | 6.8
21 | NCc1cccc(COc2ccc(-c3c(-c4ccncc4)nn4c3C(=O)NCC4)cc2)c1 [Compound 133] |  |  | 5.6 | > 10 µM | > 10 µM |  | 
22 | CC(C)c1ccc(COc2ccc(-c3c(-c4ccncc4)nn4c3C(=O)N(CC(=O)O)CC4)cc2)cc1 [Compound 66] |  | > 10 µM | 5.1 | 0.251 µM |  |  | 
23 | CC(C)c1ccc(C2CNc3cc(-c4c(-c5ccncc5)nn5c4C(=O)NCC5)cnc3O2)cc1 (stereo not shown) [Compound 223] |  | > 10 µM | 6.5 | 0.398 µM |  |  | 
24 | CC(C)c1ccc(COc2ccc(-c3c(-c4ccncc4)nn4c3C(=O)NCC4)c(F)c2)cc1CCO [Compound 204] |  | > 10 µM | 7.9 | 0.00631 µM |  |  | 7.8
25 | CC(C)c1ccc(COC2CCN(c3c(-c4ccncc4)nn4c3C(=O)NCC4)CC2)cc1 [Compound 198] |  | > 10 µM | 6.6 | 0.251 µM |  |  | 
26 | CC(O)C(=O)N1CCn2nc(-c3ccncc3)c(-c3ccc(OCc4ccc(C(C)C)cc4)cc3)c2C1 (stereo not shown) [Compound 180] |  |  | 6.5 | 0.501 µM | > 10 µM |  | 
27 | COc1ccc(COc2ccc(-c3c(-c4ccncc4)nn4c3CNCC4)cc2)cc1 [Compound 188] |  |  | 5.5 | 3.98 µM | > 10 µM |  | 
28 | CC(C)c1ccc(COc2ccc(-c3c(-c4ccncc4)nn4c3C(=O)N(C)CC4)cc2)cc1CCO [Compound 82] |  | > 10 µM | 7.6 | 0.01 µM |  |  | 7.3
29 | CC(C)c1ccc(COc2ccc(-c3c(-c4ccncc4)nn4c3CN(CC(=O)N3CCCC3)CC4)cc2)cc1 [Compound 179] |  |  | 6.4 | 0.501 µM | > 10 µM |  | 
30 | CC1Cn2nc(-c3ccncc3)c(-c3ccc(OCc4ccc(C5CC5)cc4)cc3)c2CN1 (stereo not shown) [Compound 190] |  |  | 6.1 | 0.631 µM | > 10 µM |  | 

From patent publication US10280170B2, “Substituted 4,5,6,7-tetrahydro-pyrazolo[1,5-a]pyrazine derivatives and 5,6,7,8-tetrahydro-4H-pyrazolo[1,5-a][1,4]diazepine derivatives as Ros1 inhibitors” (Janssen Pharmaceutica NV, priority 2014, dated 2019)
